Molecules are shown by their SMILES. Structures can show the parent of a compound that is named as a salt. Where two headings read alike, the source gives them in different places.

As usually defined, the IC50 is the concentration that gives 50% inhibition.

The test system of series [1] is Human Trabecular Meshwork cells. In words: Activity in Human Trabecular Meshwork cells (HTM). In kind it is cell-based. The protocol: (§1) Activities of certain compounds and components of compounds described herein were assayed. […] Rho-associated protein kinase 2=ROCK2; Rho-associated protein kinase 1=ROCK1; Porcine Trabecular Meshwork cells=PTM; Human Trabecular Meshwork cells=HTM; Splenic Interleukin-23=SPNL IL23; and Tumor Necrosis Factor α=TNFα.

In series [2] the target is Rho-associated protein kinase 1 (ROCK1) (Homo sapiens, UniProt Q13464). In words: In vitro ROCKi activity, ROCK1. In kind it is biochemical. The protocol: as §1
Series [3] addresses Rho-associated protein kinase 2 (ROCK2) (Homo sapiens, UniProt O75116). In words: In vitro ROCKi activity, ROCK2. In kind it is biochemical. The method, then:
as §1

Series [4] relates to Porcine Trabecular Meshwork cells. In words: Activity in Porcine Trabecular Meshwork cells (PTM). In kind it is cell-based. Conditions: Sus scrofa. The protocol: as §1
In a further series the test system is Splenic Interleukin-23. In words: In vitro steroid activity, splenic IL-23. In kind it is cell-based. As to conditions: read-out: IC50 (nM) SPLN IL23. The protocol:
(§2) Activities of certain compounds and components of compounds described herein were assayed. […] Rho-associated protein kinase 2=ROCK2; […] Porcine Trabecular Meshwork cells=PTM; Human Trabecular Meshwork cells=HTM; Splenic Interleukin-23=SPNL IL23; and Tumor Necrosis Factor α=TNFα.

Another series relates to Tumor Necrosis Factor α. In words: In vitro steroid activity, TNFα. In kind it is cell-based. Conditions: read-out: IC50 (nM) TNFα. The protocol: as §2
The subject of series [5] is intraocular pressure in normotensive Dutch Belted rabbits. In words: Intraocular pressure study in normotensive Dutch Belted rabbits. Type of series: in vivo. Conditions: single dose E5 0.1% or 0.25%. The protocol:
E5 was formulated in 3.5% or 6.5% sulfobutylether-β-cyclodextrin (SBEβCD), 10 mM PBS, pH 6 and filtered with a 0.2 μm PVDF filter. A single dose was administered and the intraocular pressure was measured, e.g., with a pneumatonometer, for 32 hours post-dose.

Series [6] relates to corneal epithelium debridement in C57/B1/6 mice. In words: In vivo PK/PD ocular surface corneal wound healing model. As to conditions: 0.1% E5 in SBEβCD. The protocol:
E5 was formulated in 3.5% sulfobutylether-β-cyclodextrin (SBEβCD), 10 mM PBS, pH 6 and filtered with a 0.2 μm PVDF filter.
Anesthetized animals (8-10 weeks old male C57/B1/6 mice) were placed under a dissecting microscope and eyes proposed. Corneas of OD eyes were demarcated by centrally, and softly, marking the perimeters of the debridement area with a 2 mm trephine. A 10 μL drop of PBS was placed on the eye and an Algerbrush with a 0.5 mm burr attachment was utilized to carefully remove the epithelium within the demarcated area of the cornea. Topical fluorescein (Sigma) was applied, and excess fluorescein flushed prior to capture of a baseline image of the wound (time=0). Topical treatments were administered at t=0 and t=6 hours post-injury by applying 5 µL to the surface of the debrided eye. Fluorescein-stained corneas were imaged again 24 h after injury. Percent re-epithelialization was assessed by analysis of imaged corneas with Image J (NIH, Bethesda, MD).
0.1% dexamethasone and 0.5% loteprednol were used as positive clinically relevant controls.

Series [7] has as its system Allergic Eye Disease (AED) in wildtype C57Bl/6 mice. In words: Chronic/severe allergic eye disease (AED) model, Meibomian gland dysfunction. Type of series: in vivo. As to conditions: 0.1% E5 in SBEβCD, topical BID 5 uL. The method, then: E5 was formulated in 5% sulfobutylether-β-cyclodextrin (SBEβCD), 10 mM PBS (0.1% NaCl) solution, pH 6 and filtered with a 0.2 μm PVDF filter. AED was induced in wildtype C57Bl/6 mice. Animals were immunized with one intraperitoneal (i.p) injection of 100 μg of OVA (InvivoGen) in 300 ng of pertussis toxin (List Biologicals) and 4 mg of aluminum hydroxide (Alum, Thermo Fisher Scientific Pierce) on Day 0. Two weeks later, mice were treated topically QD with 5 μL OVA (50 μg/μL) in sterile saline for 5 days. Mice were treated topically BID with 5 uL of vehicle (10% SBEβCD), Lotemax® (Bausch & Lomb; loteprednol etabonate ophthalmic gel 0.5%) or 0.1% E5 in SBEβCD (50:1). The first treatment was administered on Day 14 (2 weeks after initial immunization), 10 minutes prior to OVA instillation followed by a second dose >7 hrs thereafter.
Assessment was carried out following euthanasia. All four lids were gently inverted under a dissection microscope to expose the posterior lid margin. The number of plugs on the upper and lower eyelids are analyzed and scored for severity as follows: 0 indicates no plug, 1+ indicates appearance of plug. 2+ is assigned to a plug that obstructs the entire MG (Meibomian gland) orifice, 3+ is a plug with a dome that rises above the plane of the eyelid margin, and a 4 is given to a plug that covers a larger surface than the MG orifice (usually with irregular circumference edges).
Clinical parameters including eyelid edema, chemosis, conjunctival redness, and tearing were each scored on a scale of 0-3+. A score of 0 indicated no evidence of the respective parameter, 1+ is assigned if the response is mild, but distinctly greater than the naive controls; 2+ for a moderate change in the respective parameters that could be noted by slit-lamp microscopy, but not with naked eye; and 3+ if the response is severe enough that could be perceived with naked eye.
Results are shown in FIG. 9, FIG. 10, and FIG. 11.

Sequence of Rho-associated protein kinase 2 (ROCK2) (O75116 whole entry, species assumed): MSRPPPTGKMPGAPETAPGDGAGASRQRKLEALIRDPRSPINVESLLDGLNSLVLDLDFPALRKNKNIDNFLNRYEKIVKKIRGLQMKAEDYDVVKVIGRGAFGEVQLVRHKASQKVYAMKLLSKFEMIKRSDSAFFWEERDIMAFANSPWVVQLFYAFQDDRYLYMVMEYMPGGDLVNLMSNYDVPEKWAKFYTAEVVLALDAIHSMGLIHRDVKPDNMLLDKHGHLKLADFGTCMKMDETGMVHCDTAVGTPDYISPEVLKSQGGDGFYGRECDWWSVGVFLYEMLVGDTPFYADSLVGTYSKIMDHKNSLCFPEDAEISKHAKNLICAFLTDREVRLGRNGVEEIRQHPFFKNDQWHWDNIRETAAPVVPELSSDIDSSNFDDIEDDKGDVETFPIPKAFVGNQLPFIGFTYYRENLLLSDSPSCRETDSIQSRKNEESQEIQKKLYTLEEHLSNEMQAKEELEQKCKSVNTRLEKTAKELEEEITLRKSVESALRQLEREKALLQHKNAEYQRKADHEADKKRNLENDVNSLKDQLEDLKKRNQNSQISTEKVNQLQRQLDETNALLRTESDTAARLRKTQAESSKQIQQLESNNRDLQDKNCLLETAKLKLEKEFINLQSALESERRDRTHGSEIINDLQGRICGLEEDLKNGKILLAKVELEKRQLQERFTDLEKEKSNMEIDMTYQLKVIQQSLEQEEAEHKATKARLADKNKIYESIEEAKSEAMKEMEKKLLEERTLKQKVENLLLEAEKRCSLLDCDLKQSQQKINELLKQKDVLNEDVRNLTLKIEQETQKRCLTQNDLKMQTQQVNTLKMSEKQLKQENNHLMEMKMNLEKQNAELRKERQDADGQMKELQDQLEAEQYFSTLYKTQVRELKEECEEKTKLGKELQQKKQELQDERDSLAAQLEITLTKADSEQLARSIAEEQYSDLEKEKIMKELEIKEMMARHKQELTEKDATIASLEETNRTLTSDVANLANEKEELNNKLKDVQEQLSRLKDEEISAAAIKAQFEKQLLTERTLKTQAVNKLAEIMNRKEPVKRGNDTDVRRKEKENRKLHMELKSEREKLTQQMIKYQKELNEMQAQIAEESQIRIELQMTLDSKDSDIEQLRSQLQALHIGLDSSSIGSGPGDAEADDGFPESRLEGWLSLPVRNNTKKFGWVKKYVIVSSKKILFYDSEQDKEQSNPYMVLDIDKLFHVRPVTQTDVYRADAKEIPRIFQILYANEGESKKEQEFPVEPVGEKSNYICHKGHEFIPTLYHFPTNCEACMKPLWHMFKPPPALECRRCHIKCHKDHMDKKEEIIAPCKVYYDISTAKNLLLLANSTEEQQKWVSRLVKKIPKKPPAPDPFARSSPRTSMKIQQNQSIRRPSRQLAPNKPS
Sequence of Rho-associated protein kinase 1 (ROCK1) (Q13464 whole entry, species assumed): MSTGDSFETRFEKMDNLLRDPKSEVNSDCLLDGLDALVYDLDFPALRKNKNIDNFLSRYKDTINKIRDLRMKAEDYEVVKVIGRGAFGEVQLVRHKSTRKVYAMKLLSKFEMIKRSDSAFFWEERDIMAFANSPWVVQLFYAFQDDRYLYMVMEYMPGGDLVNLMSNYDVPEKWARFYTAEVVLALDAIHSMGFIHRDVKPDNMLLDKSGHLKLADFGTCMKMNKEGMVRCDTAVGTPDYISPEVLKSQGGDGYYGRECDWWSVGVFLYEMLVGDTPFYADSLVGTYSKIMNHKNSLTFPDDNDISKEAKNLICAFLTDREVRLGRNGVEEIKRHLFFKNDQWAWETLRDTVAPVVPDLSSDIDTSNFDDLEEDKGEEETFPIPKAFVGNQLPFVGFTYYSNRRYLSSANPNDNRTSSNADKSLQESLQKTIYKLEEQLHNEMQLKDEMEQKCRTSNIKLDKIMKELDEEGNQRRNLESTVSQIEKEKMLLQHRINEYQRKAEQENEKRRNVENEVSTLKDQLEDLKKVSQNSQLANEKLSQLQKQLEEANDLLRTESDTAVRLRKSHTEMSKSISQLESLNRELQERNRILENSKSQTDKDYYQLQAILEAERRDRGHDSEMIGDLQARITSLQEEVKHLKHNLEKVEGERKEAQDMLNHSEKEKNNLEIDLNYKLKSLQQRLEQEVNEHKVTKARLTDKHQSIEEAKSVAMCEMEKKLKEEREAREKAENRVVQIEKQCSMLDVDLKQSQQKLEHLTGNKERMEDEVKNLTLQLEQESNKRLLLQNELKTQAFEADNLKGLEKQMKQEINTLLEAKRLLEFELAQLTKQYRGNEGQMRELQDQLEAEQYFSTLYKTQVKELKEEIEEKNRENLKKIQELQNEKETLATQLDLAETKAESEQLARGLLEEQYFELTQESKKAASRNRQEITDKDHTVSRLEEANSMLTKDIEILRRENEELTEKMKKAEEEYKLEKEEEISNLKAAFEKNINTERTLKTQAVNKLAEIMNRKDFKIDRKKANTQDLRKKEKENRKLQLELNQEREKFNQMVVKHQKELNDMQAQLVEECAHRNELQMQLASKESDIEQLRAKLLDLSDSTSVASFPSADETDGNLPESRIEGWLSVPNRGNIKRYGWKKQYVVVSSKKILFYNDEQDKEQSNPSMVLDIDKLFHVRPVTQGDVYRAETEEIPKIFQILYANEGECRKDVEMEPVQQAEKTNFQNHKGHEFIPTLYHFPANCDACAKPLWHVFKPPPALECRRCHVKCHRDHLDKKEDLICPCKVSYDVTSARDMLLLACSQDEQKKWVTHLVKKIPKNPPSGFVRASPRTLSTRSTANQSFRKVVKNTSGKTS

In the case of `NC[C@@H](C(=O)Nc1ccc2cnccc2c1)c1ccc(CO)cc1` [A, reference compound], the IC50 in series [1] came out at 5 nM; in series [2] it was 1.7 nM; in [3] it was 0.99 nM; in series [4], 13 nM.

With `C[C@@H]1C[C@H]2[C@@H]3CCC4=CC(=O)C=C[C@]4(C)[C@@]3(F)[C@@H](O)C[C@]2(C)[C@@]1(O)C(=O)CO` [B, Dexamethasone, reference compound], the IC50 in the series with Splenic Interleukin-23 (Splenic Interleukin-23) is 4.6 nM; in series [1], not below 3000 nM; in the series on Tumor Necrosis Factor α it was 47 nM; in series [4], not below 3000 nM.

In the case of `CC1(C)O[C@@H]2C[C@H]3[C@@H]4CCC5=CC(=O)C=C[C@]5(C)[C@@]4(F)[C@@H](O)C[C@]3(C)[C@]2(C(=O)CO)O1` [C, Triamcinolone, reference compound], the concentration for half-maximal inhibition (IC50) with Splenic Interleukin-23 (Splenic Interleukin-23) was found to be 0.93 nM; in the series with Tumor Necrosis Factor α it was 0.51 nM.

As for `CC1(C)O[C@@H]2C[C@H]3[C@@H]4CCC5=CC(=O)C=C[C@]5(C)[C@@]4(F)[C@@H](O)C[C@]3(C)[C@]2(C(=O)COC(=O)CCCC(=O)OCc2ccc([C@@H](CN)C(=O)Nc3ccc4cnccc4c3)cc2)O1` [Example E5, 4-((S)-3-amino-1-(isoquinolin-6-ylamino)-1-oxopropan-2-yl)benzyl (2-((6aS,6bR,7S,8aS,8bS,11aR,12aS,12bS)-6b-fluoro-7-hydroxy-6a,8a,10,10-tetramethyl-4-oxo-1,2,4,6a,6b,7,8,8a,11a,12,12a,12b-dodecahydro-8bH-naphtho[2′,1′:4,5]indeno[1,2-d][1,3]dioxol-8b-yl)-2-oxoethyl) glutarate dihydrochloride], the IC50 was found to be 1 nM in the series with Splenic Interleukin-23; 9 nM in series [2]; 10 nM in the series with Tumor Necrosis Factor α; 9 nM in [3] (read-out: IC50 (nM) ROCK2); 55 nM in series [4]. Besides, the hyperemia entry in [5] (Dutch belted rabbits) is recorded as “no hyperemia observed”. In series [5] (measured for 32 hours post-dose, FIG. 14, FIG. 15), the “intraocular pressure (IOP)” value is reported as “lowered IOP in a dose-dependent manner”. Besides, the “re-epithelialization (recovery of epithelium)” value in series [6] (24 h after epithelium debridement, FIG. 12) was “did not affect the recovery of epithelium”. Besides, in series [6] (topical 5 µL at t=0 and t=6 hours post-injury, FIG. 13), the “myeloperoxidase (MPO) levels (eye surface inflammation)” value is “significantly reduced the cornea inflammation in comparison to PBS (phosphate-buffered saline) vehicle and loteprednol groups”. Also, in [7] (FIG. 10), the “Meibomian gland orifice plugging (number and severity of MG plugs)” value was “effective in lowering both the number and severity of the MG plugs compared to both vehicle and loteprednol”. Further, in series [7] (FIG. 11), the “neutrophil levels in Meibomian gland and conjunctiva” value is “reduced the number of neutrophils in the Meibomian gland and conjunctiva”. For the same compound, the “clinical scoring (eyelid edema, chemosis, conjunctival redness, tearing)” value in series [7] (better than loteprednol gel, significance on day 4, FIG. 9) was “statistically significantly improved compared to vehicle”.

Consider `C[C@@H]1C[C@H]2[C@@H]3CCC4=CC(=O)C=C[C@]4(C)[C@@]3(F)[C@@H](O)C[C@]2(C)[C@@]1(O)C(=O)COC(=O)CCCC(=O)OCc1ccc([C@@H](CN)C(=O)Nc2ccc3cnccc3c2)cc1` [Example E15], for which the concentration for half-maximal inhibition (IC50) came out at 12 nM with Splenic Interleukin-23 (Splenic Interleukin-23); 7 nM in series [2]; 147 nM in the series with Tumor Necrosis Factor α; 4 nM in series [3] (read-out: IC50 (nM) ROCK2); 40 nM in series [4].
